Patent publication US10774064B2 (Cadent Therapeutics, Inc., priority 2016, dated 2020)

target: T1, small-conductance Ca2+-activated K+ channels (SK channels, subtype 2) (Homo sapiens, UniProt Q9H2S1); assay: whole-cell patch-clamp of ionic current through SK2 channels in HEK293 cells (SC100); type: cell-based; conditions: whole-cell patch-clamp, HEK293 cells expressing SK2 channels; concentration that increases the basal current by 100%
T1 construct: expressed in transfected cells; host or cells: HEK293
Summary of the method: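 SC100, the concentration doubling basal current (a 100% increase), was taken from SK2 currents recorded by whole-cell patch-clamp in SK2-expressing HEK293 cells.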

SMILES	SC100 (μM)
Cc1cc(NC2CCC(F)(F)CC2)nc(-n2ccc(C3CC3)n2)c1 [IN11106-062-P1, 6-(3-cyclopropyl-1H-pyrazol-1-yl)-N-(4,4-difluorocyclohexyl)-4-methylpyridin-2-amine]	+++ (+++ means <200 nM)
CNC(=O)Oc1c(NC2CCC(F)(F)CC2)nc(-c2nc(C)cs2)nc1OC [IN11106-065-P1, 4-((4,4-difluorocyclohexyl)amino)-6-methoxy-2-(4-methylthiazol-2-yl)pyrimidin-5-yl methylcarbamate]	+ (+ means >1 uM)
Cn1cnc(COc2cc(NC3CCC(F)(F)CC3)nc(-n3ccc(C4CC4)n3)n2)n1 [IN11106-066-P1]	+ (+ means >1 uM)
Cc1csc(-c2nc(C)c(F)c(NC3CCC(F)(F)CC3)n2)n1 [IN11106-077-P1, N-(4,4-difluorocyclohexyl)-5-fluoro-6-methyl-2-(4-methylthiazol-2-yl)pyrimidin-4-amine]	++ (++ means 200 nM-1000 nM)
Cc1ccn(-c2nc(NC3CCC(F)(F)CC3)cc(N3CCNC(=O)C3)n2)n1 [IN11106-091-P1]	++ (++ means 200 nM-1000 nM)
Cc1ccn(-c2nc(NC3CC(F)(F)C3)cc(N3CCOCC3)n2)n1 [IN11107-020-P1]	+ (+ means >1 uM)
COc1cc(NCCC(C)(F)F)nc(-c2nc(C)cs2)n1 [IN11107-021-P1]	+ (+ means >1 uM)
COc1cc(NCCCC(C)(F)F)nc(-c2nc(C)cs2)n1 [IN11107-023-P1]	+ (+ means >1 uM)
COc1cc(NC2CC(F)(F)C2)nc(-n2nc(C)cc2C)n1 [IN11108-018-P1]	+ (+ means >1 uM)
Cc1cc(C)n(-c2nc(NC3CC(F)(F)C3)cc(N3CCOCC3)n2)n1 [IN11108-019-P1]	+ (+ means >1 uM)
COCc1cc(NC2CC(F)(F)C2)nc(-n2nc(C)cc2C)n1 [IN11108-038-P1, N-(3,3-difluorocyclobutyl)-2-(3,5-dimethyl-1H-pyrazol-1-yl)-6-(methoxymethyl)pyrimidin-4-amine]	+ (+ means >1 uM)
COc1cc(NC2CCC2)nc(-c2nc(C)cs2)n1 [IN11111-003-P1]	+ (+ means >1 uM)
COc1c(NC2CCC(F)(F)CC2)nc(-c2nc(C)cs2)nc1OCc1cnco1 [IN11111-021-P1]	++ (++ means 200 nM-1000 nM)
COc1c(NC2CCC(F)(F)CC2)nc(-c2nc(C)cs2)nc1OCCO [IN11111-023-P1]	+ (+ means >1 uM)
Cc1cccc(-c2cc(CO)cc(NC3CCC(F)(F)CC3)n2)n1 [IN11111-063-P1, (6-((4,4-difluorocyclohexyl)amino)-6′-methyl-[2,2′-bipyridin]-4-yl)methanol]	+ (+ means >1 uM)
OCc1cc(NC2CCC(F)(F)CC2)nc(-n2ccc(C3CC3)n2)c1 [IN11111-092-P1]	++ (++ means 200 nM-1000 nM)
Cc1ccn(-c2nc(NC3CCC(F)(F)CC3)cc(N3CCCOCC3)n2)n1 [IN11111-097-P1]	++ (++ means 200 nM-1000 nM)
Cc1ccn(-c2nc(NC3CCC(F)(F)CC3)c(F)c(N3CCOCC3)n2)n1 [IN11111-100-P1, N-(4,4-difluorocyclohexyl)-5-fluoro-2-(3-methyl-1H-pyrazol-1-yl)-6-morpholinopyrimidin-4-amine]	++ (++ means 200 nM-1000 nM)
CCOc1cc(NC2CCC(F)(F)CC2)nc(-n2nc(C)cc2C)n1 [IN11121-042-P1, N-(4,4-difluorocyclohexyl)-2-(3,5-dimethyl-1H-pyrazol-1-yl)-6-ethoxypyrimidin-4-amine]	+ (+ means >1 uM)
COc1c(NC2CCC(F)(F)CC2)nc(-c2nc(C)cs2)nc1N1CCOCC1 [IN11125-001-P1]	+ (+ means >1 uM)
CNC(=O)Oc1c(NC2CCC(F)(F)CC2)nc(-c2nc(C)cs2)[nH]c1=O [IN11125-006-P1, 4-((4,4-difluorocyclohexyl)amino)-6-hydroxy-2-(4-methylthiazol-2-yl)pyrimidin-5-yl methylcarbamate]	+ (+ means >1 uM)
COc1cc(C#N)cnc1OCc1cc(NC2CCC(F)(F)CC2)nc(-n2ccc(C)n2)c1 [IN11125-008-P1]	+++ (+++ means <200 nM)
COc1nc(-c2nc(C)cs2)nc(NC2CCC(F)(F)CC2)c1OC [IN11125-010-P1]	++ (++ means 200 nM-1000 nM)
COCCOCc1cc(NC2CCC(F)(F)CC2)nc(-n2ccc(C)n2)c1 [IN11125-012-P1]	++ (++ means 200 nM-1000 nM)

SMILES	SC100 (μM)
Cc1csc(-c2nc(NC3CCC(F)(F)CC3)cc(OCc3ccon3)n2)n1 [IN11125-013-P1]	++ (++ means 200 nM-1000 nM)
COc1cnc(-c2nc(C)cs2)nc1NC1CCC(F)(F)CC1 [IN11125-014-P1, N-(4,4-difluorocyclohexyl)-5-methoxy-2-(4-methylthiazol-2-yl)pyrimidin-4-amine]	++ (++ means 200 nM-1000 nM)
COc1cc(NC2CCC(F)(F)C2)nc(-c2nc(C)cs2)n1 (stereo not drawn) [IN11125-028-P1]	+ (+ means >1 uM)
COC(=O)NCCOc1c(NC2CCC(F)(F)CC2)nc(-c2nc(C)cs2)nc1OC [IN11125-052-P1, methyl (2-((4-((4,4-difluorocyclohexyl)amino)-6-methoxy-2-(4-methylthiazol-2-yl)pyrimidin-5-yl)oxy)ethyl)carbamate]	+ (+ means >1 uM)
COC(=O)NCCOc1c(NC2CCC(F)(F)CC2)nc(-c2nc(C)cs2)[nH]c1=O [IN11125-065-P1, methyl (2-((4-((4,4-difluorocyclohexyl)amino)-6-hydroxy-2-(4-methylthiazol-2-yl)pyrimidin-5-yl)oxy)ethyl)carbamate]	+ (+ means >1 uM)
COc1nc(-c2nc(C)cs2)nc(NC2CCC(F)(F)CC2)c1OCc1cnco1 [IN11125-091-P1, N-(4,4-difluorocyclohexyl)-6-methoxy-2-(4-methylthiazol-2-yl)-5-(oxazol-5-ylmethoxy)pyrimidin-4-amine]	+ (+ means >1 uM)
Cc1csc(-c2ncc(O)c(NC3CCC(F)(F)CC3)n2)n1 [IN11125-095-P1, 4-((4,4-difluorocyclohexyl)amino)-2-(4-methylthiazol-2-yl)pyrimidin-5-ol]	+ (+ means >1 uM)
Cc1ccn(-c2cc3c(c(N4CCOCC4)n2)CCN3)n1 [IN11130-005-P1, 4-(6-(3-methyl-1H-pyrazol-1-yl)-2,3-dihydro-1H-pyrrolo[3,2-c]pyridin-4-yl)morpholine]	+ (+ means >1 uM)
Cc1cccc(-c2nccc(NC3CCC(F)(F)CC3)n2)n1 [IN11130-030-P1, N-(4,4-difluorocyclohexyl)-2-(6-methylpyridin-2-yl)pyrimidin-4-amine]	+ (+ means >1 uM)
Cc1cccc(-c2nc(NC3CCC(F)(F)CC3)cc(OCc3cnco3)n2)n1 [IN11130-031-P2, N-(4,4-difluorocyclohexyl)-2-(6-methylpyridin-2-yl)-6-(oxazol-5-ylmethoxy)pyrimidin-4-amine]	+ (+ means >1 uM)
COC(=O)NCc1cc(NC2CCC(F)(F)CC2)nc(-c2nc(C)cs2)c1 [IN11130-047-P1]	+++ (+++ means <200 nM)
Cc1csc(-c2cc(C(C)O)cc(NC3CCC(F)(F)CC3)n2)n1 (stereo not drawn) [IN11130-051-P1, 1-(2-((4,4-difluorocyclohexyl)amino)-6-(4-methylthiazol-2-yl)pyridin-4-yl) ethan-1-ol]	+++ (+++ means <200 nM)
CC(=O)c1cc(NC2CCC(F)(F)CC2)nc(-c2nc(C)cs2)c1 [IN11130-053-P1, 1-(2-((4,4-difluorocyclohexyl)amino)-6-(4-methylthiazol-2-yl)pyridin-4-yl) ethan-1-one]	+++ (+++ means <200 nM)
Cc1csc(-c2ncc(C)c(NC3CCC(F)(F)CC3)n2)n1 [IN11130-076-P1, N-(4,4-difluorocyclohexyl)-5-methyl-2-(4-methylthiazol-2-yl)pyrimidin-4-amine]	+ (+ means >1 uM)
COC(=O)N1CC=C(c2cc(NC3CCC(F)(F)CC3)nc(-n3ccc(C)n3)c2)CC1 [IN11130-077-P1, methyl 2′-((4,4-difluorocyclohexyl)amino)-6′-(3-methyl-1H-pyrazol-1-yl)-3,6-dihydro-[4,4′-bipyridine]-1(2H)-carboxylate]	+ (+ means >1 uM)
Cc1csc(-c2nc(NC3CCC(F)(F)CC3)cc(C(C)n3cccn3)n2)n1 (stereo not drawn) [IN11133-002-P1, 6-(1-(1H-pyrazol-1-yl)ethyl)-N-(4,4-difluorocyclohexyl)-2-(4-methylthiazol-2-yl)pyrimidin-4-amine]	+ (+ means >1 uM)
COc1cc(NC2CC(F)(F)C2)nc(-c2nc(C)cs2)n1 [IN11133-014-P1]	+ (+ means >1 uM)
Cc1csc(-c2nc(NC3CC(F)(F)C3)cc(OC3CCOCC3)n2)n1 [IN11133-020-P1, N-(3,3-difluorocyclobutyl)-2-(4-methylthiazol-2-yl)-6-((tetrahydro-2H-pyran-4-yl)oxy) pyrimidin-4-amine]	+ (+ means >1 uM)
Cc1ccn(-c2nc(N[C@@H]3CCCC[C@H]3F)cc(N3CCOCC3)n2)n1 [IN11133-031-P1]	+ (+ means >1 uM)
Cc1csc(-c2cc(CNC=O)cc(NC3CCC(F)(F)CC3)n2)n1 [IN11133-037-P1]	+++ (+++ means <200 nM)
Cc1csc(-c2cc(CN)cc(NC3CCC(F)(F)CC3)n2)n1 [IN11133-049-P1, 4-(aminomethyl)-N-(4,4-difluorocyclohexyl)-6-(4-methylthiazol-2-yl)pyridin-2-amine]	++ (++ means 200 nM-1000 nM)
Cc1csc(-c2cc(COC(N)=O)cc(NC3CCC(F)(F)CC3)n2)n1 [IN11133-061-P1, (2-((4,4-difluorocyclohexyl)amino)-6-(4-methylthiazol-2-yl)pyridin-4-yl)methyl carbamate]	+++ (+++ means <200 nM)
CC(=O)N(C)Cc1cc(NC2CCC(F)(F)CC2)nc(-c2nc(C)cs2)c1 [IN11133-068-P1]	++ (++ means 200 nM-1000 nM)
Cc1csc(-c2cc(CN(C)C=O)cc(NC3CCC(F)(F)CC3)n2)n1 [IN11133-069-P1]	+++ (+++ means <200 nM)
